This note sets out measurements from article PMC4891385 (Clinical Drug Investigation, 2016).

Holding throughout (assay type): in vitro ADME
One series deals with T1, OATP1B3 (Homo sapiens, UniProt Q9NPD5).
T1 sequence (Q9NPD5 1-702): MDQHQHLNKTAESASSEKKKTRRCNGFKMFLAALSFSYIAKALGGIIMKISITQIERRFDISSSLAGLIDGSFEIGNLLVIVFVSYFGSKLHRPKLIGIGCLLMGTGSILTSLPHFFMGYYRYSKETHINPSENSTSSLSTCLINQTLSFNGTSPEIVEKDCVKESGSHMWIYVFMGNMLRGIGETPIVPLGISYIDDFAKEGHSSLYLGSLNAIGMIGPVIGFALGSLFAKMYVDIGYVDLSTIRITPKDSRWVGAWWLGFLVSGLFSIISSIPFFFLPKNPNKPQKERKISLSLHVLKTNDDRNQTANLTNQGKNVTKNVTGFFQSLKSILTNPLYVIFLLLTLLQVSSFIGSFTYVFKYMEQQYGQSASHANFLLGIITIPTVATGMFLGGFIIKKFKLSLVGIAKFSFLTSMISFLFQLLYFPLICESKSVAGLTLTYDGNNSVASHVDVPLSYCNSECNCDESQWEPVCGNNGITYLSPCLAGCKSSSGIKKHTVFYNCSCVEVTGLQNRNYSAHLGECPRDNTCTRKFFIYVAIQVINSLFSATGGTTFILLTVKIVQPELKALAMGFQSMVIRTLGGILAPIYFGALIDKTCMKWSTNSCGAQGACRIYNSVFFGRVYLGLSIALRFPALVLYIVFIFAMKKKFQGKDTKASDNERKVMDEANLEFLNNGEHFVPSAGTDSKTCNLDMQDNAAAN
Briefly: [14C]-lesinurad uptake, substrate test, hOATP1B3 MDCK-II cells.

Another series concerns the target T2, BCRP (Homo sapiens, UniProt Q9UNQ0).
T2 sequence (Q9UNQ0 1-655): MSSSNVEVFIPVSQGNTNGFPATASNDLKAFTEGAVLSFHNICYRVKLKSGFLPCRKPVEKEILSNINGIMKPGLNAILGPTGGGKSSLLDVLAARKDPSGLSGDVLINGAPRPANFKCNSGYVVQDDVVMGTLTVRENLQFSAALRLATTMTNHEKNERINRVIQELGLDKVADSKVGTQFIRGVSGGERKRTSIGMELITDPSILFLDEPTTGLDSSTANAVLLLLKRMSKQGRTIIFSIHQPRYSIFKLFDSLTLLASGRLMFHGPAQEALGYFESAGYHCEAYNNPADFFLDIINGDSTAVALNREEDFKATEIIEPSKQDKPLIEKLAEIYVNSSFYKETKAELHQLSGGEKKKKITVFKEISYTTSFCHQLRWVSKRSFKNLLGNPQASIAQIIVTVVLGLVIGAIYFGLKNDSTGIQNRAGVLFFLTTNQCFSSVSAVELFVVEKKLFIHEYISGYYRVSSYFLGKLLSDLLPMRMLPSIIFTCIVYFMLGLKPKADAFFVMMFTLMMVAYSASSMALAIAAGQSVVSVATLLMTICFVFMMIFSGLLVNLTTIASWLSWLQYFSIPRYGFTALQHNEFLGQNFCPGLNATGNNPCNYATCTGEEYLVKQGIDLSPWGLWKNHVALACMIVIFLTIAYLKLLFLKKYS
Briefly: [14C]-lesinurad substrate test, BCRP in Caco-2 cells.

The target of a further series is T3, OAT1 (Homo sapiens, UniProt Q4U2R8).
T3 sequence (Q4U2R8 1-563): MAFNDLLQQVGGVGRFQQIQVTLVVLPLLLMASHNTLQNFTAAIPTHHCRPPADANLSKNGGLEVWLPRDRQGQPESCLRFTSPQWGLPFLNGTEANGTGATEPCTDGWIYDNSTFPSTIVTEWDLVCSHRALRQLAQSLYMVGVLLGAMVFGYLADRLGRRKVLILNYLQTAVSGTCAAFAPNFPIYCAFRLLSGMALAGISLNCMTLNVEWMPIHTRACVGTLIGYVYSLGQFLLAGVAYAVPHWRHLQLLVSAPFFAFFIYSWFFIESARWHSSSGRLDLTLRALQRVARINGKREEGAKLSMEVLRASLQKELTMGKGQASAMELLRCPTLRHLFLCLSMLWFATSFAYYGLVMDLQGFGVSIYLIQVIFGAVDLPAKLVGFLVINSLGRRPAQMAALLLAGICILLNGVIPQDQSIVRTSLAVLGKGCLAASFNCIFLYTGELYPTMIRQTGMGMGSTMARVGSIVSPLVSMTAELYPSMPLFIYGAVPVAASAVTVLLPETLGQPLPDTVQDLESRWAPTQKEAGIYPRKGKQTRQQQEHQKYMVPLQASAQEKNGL
Briefly: [14C]-lesinurad uptake, substrate test, OAT1 oocytes.

`O=C(O)CSc1nnc(Br)n1-c1ccc(C2CC2)c2ccccc12` [lesinurad]: the results for the Lesinurad as substrate entry on OATP1B3, at BCRP and at OAT1 were “not a substrate”, “minor substrate” and “substrate”, respectively.
